EP0000190A1, “Solutions with a local anesthetic effect” (Dr. Karl Thomae GmbH, priority 1977, dated 1979)

What was measured:
[1] = test system: Cornea; experiment: Local anaesthetic effect (touch stimulus) and corneal epithelium status after eye drops in rabbits, versus Kerakain; format: in vivo; details: Kaninchen
From the text: Die überlegene kurzfristige lokalanästhetische Wirkung der neuen Lösungen wurde im Vergleich zu Proxymetacain (0,5%ige 2-Diäthyl-aminoäthyl-3-amino-4-propoxybenzoesäure-hydrochlorid-Lösung = Chibro® -Kerakain) am Kaninchen wie folgt geprüft: • Den Versuchstieren, die nach Spaltlampen-Untersuchung keine Schädigung des Cornea-Epithels zeigten und klinisch keine konjunktivale Entzündung aufwiesen, wurden jeweils 2 Tropfen der entsprechenden Augentropfen appliziert. Die Sensibilität der zentralen Cornea ist eine Minute nach Applikation durch Berührungsreiz, das gesamte Hornhautepithel und die Sensibilität 5, 10, 15 und 30 Minuten nach Applikation beurteilt worden. Der Untersuchen. der die Sensibilität und den Hornhaut-Epithel-Status beurteilte, war hierbei nicht darüber informiert, welches Auge jeden Tieres mit Chibro® -Kerakain behandelt war.
Die nachfolgende Tabelle enthält die aufgefundenen Versuchsergebnisse: […]

[2] = test system: Mund- bzw. Rachenschleimhaut; experiment: Local anaesthesia of human mouth and throat mucosa after spray from a metering pump valve; format: in vivo, Mensch; details: 2%ige NA 872-Lösung, 3-8 Hübe des Pump-Dosier-Ventils, Mund- bzw. Rachenschleimhaut des Menschen, 6 Probanden
From the text: Die oben aufgezeigte Wirkung konnte unter Heranziehung des Aesthe-siometers nach Cochet und Bonnet am menschlichen Auge mit Tropf- bzw. bei der Anwendung als Spray-Applikation mit Hilfe des Pump-Dosier-Ventils an der Mund- bzw. Rachenschleimhaut bestätigt werden. Bei einer Konzentration von 0,5 bis 1 % NA 872 und der Appli kation von 1 bis 2 Tropfen pro Auge tritt die lokalanästhetische Wirkung innerhalb von 30 bis 60 Sekunden ein, die Wirkungsdauer betrug 15 bis 30 Minuten, bzw. bei der Applikation einer 2%igen NA 872-Lösung mittels 3-8 Hüben des Pump-Dosier-Ventils an der Mund- bzw.

[3] = Acute toxicity; details: mouse, in vivo, po, Maus, als Hydrochlorid
[4] = 0,5 % NA 872, 2 Tropfen, 5 Minuten nach Applikation
[5] = 1,0 % NA 872, 2 Tropfen, 5 Minuten nach Applikation
[6] = 1,0 % NA 872, 2 Tropfen, 10 Minuten nach Applikation
[7] = 1,0 % NA 872, 2 Tropfen, 15 Minuten nach Applikation
[8] = 2,0 % NA 872, 2 Tropfen, 5 Minuten nach Applikation
[9] = 2,0 % NA 872, 2 Tropfen, 10 Minuten nach Applikation
[10] = Augentropfen, conclusion from the table

Nc1c(Br)cc(Br)cc1CN[C@H]1CC[C@H](O)CC1 [NA 872, 2-Amino-3,5-dibrom-N-(trans-4-hydroxycyclohexyl)-benzylamin]
Erhobener Anästhesie-Befund (A) ([1]; 0,5 % NA 872, 2 Tropfen, 1 Minute nach Applikation): ++ | Erhobener Anästhesie-Befund (A) [1, 4]: + | Hornhaut-Befund (HH) [1, 4]: o.B. | Hornhaut-Befund (HH) ([1]; 0,5 % NA 872, 2 Tropfen, 10 Minuten nach Applikation): o.B. | Hornhaut-Befund (HH) ([1]; 0,5 % NA 872, 2 Tropfen, 15 Minuten nach Applikation): o.B. | Hornhaut-Befund (HH) ([1]; 0,5 % NA 872, 2 Tropfen, 30 Minuten nach Applikation): o.B. | Erhobener Anästhesie-Befund (A) ([1]; 1,0 % NA 872, 2 Tropfen, 1 Minute nach Applikation): ++ | Erhobener Anästhesie-Befund (A) [1, 5]: + | Hornhaut-Befund (HH) [1, 5]: o.B. | Erhobener Anästhesie-Befund (A) [1, 6]: + | Hornhaut-Befund (HH) [1, 6]: o.B. | Erhobener Anästhesie-Befund (A) [1, 7]: (+) | Hornhaut-Befund (HH) [1, 7]: o.B. | Hornhaut-Befund (HH) ([1]; 1,0 % NA 872, 2 Tropfen, 30 Minuten nach Applikation): o.B. | Erhobener Anästhesie-Befund (A) ([1]; 2,0 % NA 872, 2 Tropfen, 1 Minute nach Applikation): ++ | Erhobener Anästhesie-Befund (A) [1, 8]: ++ | Hornhaut-Befund (HH) [1, 8]: o.B. | Erhobener Anästhesie-Befund (A) [1, 9]: + | Hornhaut-Befund (HH) [1, 9]: o.B. | Hornhaut-Befund (HH) ([1]; 2,0 % NA 872, 2 Tropfen, 15 Minuten nach Applikation): o.B. | Hornhaut-Befund (HH) ([1]; 2,0 % NA 872, 2 Tropfen, 30 Minuten nach Applikation): o.B. | Nebenwirkung auf das Epithel im Vergleich zur Vergleichslösung [1, 10]: geringere Nebenwirkung auf das Epithel | lokalanästhetische Wirkung im Vergleich zur Vergleichslösung [1, 10]: kürzere lokalanästhetische Wirkung als die Vergleichslösung | Anästhesie [2]: leichte Anästhesie | LD50 [3]: 2720 mg/kg
